target: T1, E-selectin/IgG construct (Homo sapiens, UniProt P16581); test: BIAcore SPR ranking procedure at a single concentration (relative binding affinity); settings: SPR signal at single concentration 0.05 μM divided by molecular weight, normalized to internal standard; KD larger than for reference compound 64, however below 135 nM; read-out: KD values (relative* binding affinities, ranking procedure)
T1 construct: fused on or other part: IgG Fc part (human, since it is captured by goat anti-human Fc antibody), fused on as a capture handle
T1 sequence (P16581 22-175 limits assumed): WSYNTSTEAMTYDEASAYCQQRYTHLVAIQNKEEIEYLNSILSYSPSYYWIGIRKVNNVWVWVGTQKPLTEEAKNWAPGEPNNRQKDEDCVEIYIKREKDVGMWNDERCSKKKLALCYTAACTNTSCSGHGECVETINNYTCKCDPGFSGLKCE
Description: (§1) The biological evaluation of the E-selectin antagonists was performed by surface plasmon resonance (SPR). For this purpose, an E-selectin/IgG construct was captured onto a BIAcore chip surface bearing covalently linked goat anti-human Fc specific antibody (Biacore Life Sciences, Uppsala, Sweden).
The ranking of the antagonists was performed in order to obtain qualitative information on the binding strength of twenty indole antagonists. For the ranking, SPR signals were recorded at a single concentration (0.05 μM) and divided by the molecular weight of the compounds. The result obtained was normalized to the response obtained with an internal standard (63) in order to avoid problems related to the measurement on different chips with different surfaces. DMSO calibration and double referencing were applied to correct bulk effects and other systematic artifacts (subtraction of reference surface and blank injection).

Row | Compound | Kd [nM]
1 | C[C@@H]1O[C@@H](O[C@@H]2[C@@H](C)C[C@@H](C(=O)NCCc3cn(CCn4ccc5cc([N+](=O)[O-])ccc54)nn3)C[C@H]2O[C@@H]2O[C@H](CO)[C@H](O)[C@H](O[C@@H](CC3CCCCC3)C(=O)O)[C@H]2OC(=O)c2ccccc2)[C@@H](O)[C@H](O)[C@@H]1O [Product 61, (1R,3R,4R,5S)-3-[2-O-Benzoyl-3-O-((1S)-1-carboxy-2-cyclohexyl-ethyl)-(β-D-galactopyranosyl)oxy]-4-[(α-L-fucopyranosyl)oxy]-5-methyl-N-(2-{1-[2-(5-nitro-1H-indol-1-yl)ethyl]-1H-1,2,3-triazol-4-yl}ethyl)cyclohexanecarboxamide] | > 89
2 | C[C@@H]1O[C@@H](O[C@@H]2[C@@H](C)C[C@@H](C(=O)NCc3cn(CCCCn4ccc5cc([N+](=O)[O-])ccc54)nn3)C[C@H]2O[C@@H]2O[C@H](CO)[C@H](O)[C@H](O[C@@H](CC3CCCCC3)C(=O)O)[C@H]2OC(=O)c2ccccc2)[C@@H](O)[C@H](O)[C@@H]1O [Product 59, (1R,3R,4R,5S)-3-[2-O-Benzoyl-3-O-((1S)-1-carboxy-2-cyclohexyl-ethyl)-(β-D-galactopyranosyl)oxy]-4-[(α-L-fucopyranosyl)oxy]-5-methyl-N-({1-[4-(5-nitro-1H-indol-1-yl)butyl]-1H-1,2,3-triazol-4-yl}methyl)cyclohexanecarboxamide] | > 89
3 | C[C@@H]1O[C@@H](O[C@@H]2[C@@H](C)C[C@@H](C(=O)NCc3cn(CCn4ccc5cc([N+](=O)[O-])ccc54)nn3)C[C@H]2O[C@@H]2O[C@H](CO)[C@H](O)[C@H](O[C@@H](CC3CCCCC3)C(=O)O)[C@H]2OC(=O)c2ccccc2)[C@@H](O)[C@H](O)[C@@H]1O [Product 57, (1R,3R,4R,5S)-3-[2-O-Benzoyl-3-O-((1S)-1-carboxy-2-cyclohexyl-ethyl)-(β-D-galactopyranosyl)oxy]-4-[(α-L-fucopyranosyl)oxy]-5-methyl-N-({1-[2-(5-nitro-1H-indol-1-yl)ethyl]-1H-1,2,3-triazol-4-yl}methyl)cyclohexanecarboxamide] | > 89
4 | C[C@@H]1O[C@@H](O[C@@H]2[C@@H](C)C[C@@H](C(=O)NCCCc3cn(CCn4ccc5cc([N+](=O)[O-])ccc54)nn3)C[C@H]2O[C@@H]2O[C@H](CO)[C@H](O)[C@H](O[C@@H](CC3CCCCC3)C(=O)O)[C@H]2OC(=O)c2ccccc2)[C@@H](O)[C@H](O)[C@@H]1O [Product 65, (1R,3R,4R,5S)-3-[2-O-Benzoyl-3-O-((1S)-1-carboxy-2-cyclohexyl-ethyl)-(β-D-galactopyranosyl)oxy]-4-[(α-L-fucopyranosyl)oxy]-5-methyl-N-(3-{1-[2-(5-nitro-1H-indol-1-yl)ethyl]-1H-1,2,3-triazol-4-yl}propyl)cyclohexanecarboxamide] | > 89
5 | C[C@@H]1O[C@@H](O[C@@H]2[C@@H](C)C[C@@H](C(=O)NCCc3cn(CCCn4ccc5cc([N+](=O)[O-])ccc54)nn3)C[C@H]2O[C@@H]2O[C@H](CO)[C@H](O)[C@H](O[C@@H](CC3CCCCC3)C(=O)O)[C@H]2OC(=O)c2ccccc2)[C@@H](O)[C@H](O)[C@@H]1O [Product 62, (1R,3R,4R,5S)-3-[2-O-Benzoyl-3-O-((1S)-1-carboxy-2-cyclohexyl-ethyl)-(β-D-galactopyranosyl)oxy]-4-[(α-L-fucopyranosyl)oxy]-5-methyl-N-(2-{1-[3-(5-nitro-1H-indol-1-yl)propyl]-1H-1,2,3-triazol-4-yl}ethyl)cyclohexanecarboxamide] | > 89

Next, values leading:

Row | Kd [nM] | Compound
6 | > 89 | C[C@@H]1O[C@@H](O[C@@H]2[C@@H](C)C[C@@H](C(=O)NCCCc3cn(CCCn4ccc5cc(N)ccc54)nn3)C[C@H]2O[C@@H]2O[C@H](CO)[C@H](O)[C@H](O[C@@H](CC3CCCCC3)C(=O)O)[C@H]2OC(=O)c2ccccc2)[C@@H](O)[C@H](O)[C@@H]1O [Product 76, (1R,3R,4R,5S)—N-(3-{1-[3-(5-Amino-1H-indol-1-yl)propyl]-1H-1,2,3-triazol-4-yl}propyl)-3-[2-O-benzoyl-3-O-((1S)-1-carboxy-2-cyclohexyl-ethyl)-(β-D-galactopyranosyl)oxy]-4-[(α-L-fucopyranosyl)oxy]-5-methylcyclohexanecarboxamide]
7 | > 89 | CC(=O)Nc1ccc2c(ccn2CCCn2cc(CCCNC(=O)[C@@H]3C[C@H](C)[C@@H](O[C@@H]4O[C@@H](C)[C@@H](O)[C@@H](O)[C@@H]4O)[C@H](O[C@@H]4O[C@H](CO)[C@H](O)[C@H](O[C@@H](CC5CCCCC5)C(=O)O)[C@H]4OC(=O)c4ccccc4)C3)nn2)c1 [Product 77, (1R,3R,4R,5S)—N-(3-{1-[3-(5-Acetamido-1H-indol-1-yl)propyl]-1H-1,2,3-triazol-4-yl}propyl)-3-[2-O-benzoyl-3-O-((1S)-1-carboxy-2-cyclohexyl-ethyl)-(β-D-galactopyranosyl)oxy]-4-[(α-L-fucopyranosyl)oxy]-5-methylcyclohexanecarboxamide]
8 | > 89 | C[C@@H]1O[C@@H](O[C@@H]2[C@@H](C)C[C@@H](C(=O)NCCCc3cn(CCCn4ccc5cc(NC(=O)COCCOCCN)ccc54)nn3)C[C@H]2O[C@@H]2O[C@H](CO)[C@H](O)[C@H](O[C@@H](CC3CCCCC3)C(=O)O)[C@H]2OC(=O)c2ccccc2)[C@@H](O)[C@H](O)[C@@H]1O [Product 78, (1R,3R,4R,5S)—N-(3-{1-[3-(5-{2-[2-(2-Aminoethoxy)ethoxy]acetamido}-1H-indol-1-yl)propyl]-1H-1,2,3-triazol-4-yl}propyl)-3-[2-O-benzoyl-3-O-((1S)-1-carboxy-2-cyclohexyl-ethyl)-(β-D-galactopyranosyl)oxy]-4-[(α-L-fucopyranosyl)oxy]-5-methylcyclohexanecarboxamide]
9 | > 89 | C[C@@H]1O[C@@H](O[C@@H]2[C@@H](C)C[C@@H](C(=O)NCCCc3cn(CCCCn4ccc5cc([N+](=O)[O-])ccc54)nn3)C[C@H]2O[C@@H]2O[C@H](CO)[C@H](O)[C@H](O[C@@H](CC3CCCCC3)C(=O)O)[C@H]2OC(=O)c2ccccc2)[C@@H](O)[C@H](O)[C@@H]1O [Product 67, (1R,3R,4R,5S)-3-[2-O-Benzoyl-3-O-((1S)-1-carboxy-2-cyclohexyl-ethyl)-(β-D-galactopyranosyl)oxy]-4-[(α-L-fucopyranosyl)oxy]-5-methyl-N-(3-{1-[4-(5-nitro-1H-indol-1-yl)butyl]-1H-1,2,3-triazol-4-yl}propyl)cyclohexanecarboxamide]

target: T1, E-selectin/IgG construct; test: BIAcore surface plasmon resonance (SPR)-based assay, serial dilutions of the ligand (absolute KD); settings: twofold serial dilutions, 600 s association/600 s dissociation, HBS-P + 20 mm calcium + DMSO 5% v/v, read-out: KD values (absolute binding affinities)
Description: as §1
Evaluation of E-Selectin Antagonists with Surface Plasmon Resonance (SPR)-Based Assay
Ten twofold serial dilutions of the ligand were non-randomly injected. The E-selectin antagonists were diluted in running buffer (HBS-P supplemented with […] calcium and DMSO 5% v/v). Antagonist dilutions were injected with a 600 s association time and 600 s dissociation time at a flow rate of 20 μL/min over the reference and the active flow cell. […] In addition, to prevent the presence of residual traces of compound, a blank injection was performed between each injection of ligand dilution. DMSO calibration and double referencing were applied to correct bulk effects and other systematic artifacts (subtraction of reference surface and blank injection).

Row | Kd [nM] | Compound
10 | 57 | C[C@@H]1O[C@@H](O[C@@H]2[C@@H](C)C[C@@H](C(=O)NCc3cn(CCCn4ccc5cc([N+](=O)[O-])ccc54)nn3)C[C@H]2O[C@@H]2O[C@H](CO)[C@H](O)[C@H](O[C@@H](CC3CCCCC3)C(=O)O)[C@H]2OC(=O)c2ccccc2)[C@@H](O)[C@H](O)[C@@H]1O [Product 58, (1R,3R,4R,5S)-3-[2-O-Benzoyl-3-O-((1S)-1-carboxy-2-cyclohexyl-ethyl)-(β-D-galactopyranosyl)oxy]-4-[(α-L-fucopyranosyl)oxy]-5-methyl-N-({1-[3-(5-nitro-1H-indol-1-yl)propyl]-1H-1,2,3-triazol-4-yl}methyl)cyclohexanecarboxamide]
11 | 30 | C[C@@H]1O[C@@H](O[C@@H]2[C@@H](C)C[C@@H](C(=O)NCCCc3cn(CCCn4ccc5cc([N+](=O)[O-])ccc54)nn3)C[C@H]2O[C@@H]2O[C@H](CO)[C@H](O)[C@H](O[C@@H](CC3CCCCC3)C(=O)O)[C@H]2OC(=O)c2ccccc2)[C@@H](O)[C@H](O)[C@@H]1O [Product 66, (1R,3R,4R,5S)-3-[2-O-Benzoyl-3-O-((1S)-1-carboxy-2-cyclohexyl-ethyl)-(β-D-galactopyranosyl)oxy]-4-[(α-L-fucopyranosyl)oxy]-5-methyl-N-(3-{1-[3-(5-nitro-1H-indol-1-yl)propyl]-1H-1,2,3-triazol-4-yl}propyl)cyclohexanecarboxamide]
12 | 49 | C[C@@H]1O[C@@H](O[C@@H]2[C@@H](C)C[C@@H](C(=O)NCCc3cn(CCCCn4ccc5cc([N+](=O)[O-])ccc54)nn3)C[C@H]2O[C@@H]2O[C@H](CO)[C@H](O)[C@H](O[C@@H](CC3CCCCC3)C(=O)O)[C@H]2OC(=O)c2ccccc2)[C@@H](O)[C@H](O)[C@@H]1O [Product 63, (1R,3R,4R,5S)-3-[2-O-Benzoyl-3-O-((1S)-1-carboxy-2-cyclohexyl-ethyl)-(β-D-galactopyranosyl)oxy]-4-[(α-L-fucopyranosyl)oxy]-5-methyl-N-(2-{1-[4-(5-nitro-1H-indol-1-yl)butyl]-1H-1,2,3-triazol-4-yl}ethyl)cyclohexanecarboxamide]

Reference: patent US8921328B2, “E-selectin antagonists” (GlycoMimetics, Inc., priority 2010, dated 2014)
